{"source": "patent US20250049904A1", "about": "“IMMUNOSTIMULATORY COMPOSITIONS” (VICTORIA LINK LIMITED, priority 2021, published 2025)", "key": {"[1]": {"system": "Plasmodium berghei sporozoites", "experiment": "Mouse model of malaria infection: sporozoite challenge after vaccination", "assay_type": "in vivo", "method": "FIG. 3 provides a graphical representation showing that LPX-mRNA vaccines containing CI058 induce functional liver TRM responses that protect from Plasmodium berghei infection. The function of TRM induced with LPX vaccines containing CI058 was tested in a mouse model of malaria infection, which is known to require liver TRM cells to provide protection against infection. Analysis was in C57BL/6 mice with LPX-mOVA versus LPX-mOVA-CI058 vaccines, with prior transfer of OT-I cells to enhance T cell precursor frequency, and challenge was with P. berghei sporozoites from a parasite strain modified to express OVA. (A) Groups of mice (n=12-15) were subject to vaccination only. Percentages of TRM, TEM and TCM OT-I cells in each treatment group determined in liver 30 days later, assessed as in FIG. 1. Black bars: TRM cells; white bars: TEM cells; grey bars: TCM cells. […] (D) Groups of mice were subject to vaccination followed by challenge with 200 OVA-expressing P. berghei sporozoites 30 days later, and parasitemia was measured 6, 7,8, 10 and 12 days after infection. […] Groups of mice (n=12-15) were subject to vaccination, and then percentages of TRM cells, TEM cells and TCM cells in each treatment group were evaluated in liver 30 days later by flow cytometry using MHC/peptide tetramers containing a defined CD8 T cell epitope from RLP6, using gating strategy in FIG. 2. […]"}, "[2]": {"system": "tissue-resident memory T cells (TRM cells)", "experiment": "LPX-mRNA vaccination of mice i.v.; antigen-specific TRM, TEM and TCM cells in liver and spleen by flow cytometry", "assay_type": "in vivo, C57BL/6 mice"}}}
{"smiles": "CCCCCCCCCCCCCCCCCCCCCCCCCC(=O)N[C@@H](CO[C@H]1O[C@H](CSCC(=O)Nc2ccc(C3=C4C(C)=CC(C)=[N+]4[B-](F)(F)n4c(C)cc(C)c43)cc2)[C@H](O)[C@H](O)[C@H]1O)[C@H](O)[C@H](O)CCCCCCCCCCCCCC", "note": "[CI058, (2S,3S,4R)-1-(6-Deoxy-6-((2-((4-(5,5-difluoro-1,3,7,9-tetramethyl-5H-4λ4,5λ4-dipyrrolo[1,2-c:2′,1′-f][1,3,2]diazaborinin-10-yl)phenyl)amino)-2-oxoethyl)thio)-α-D-galactopyranosyloxy)-2-hexacosanoylamino-3,4-octadecandiol]", "values": [{"measurement": "protection against sporozoite challenge", "setting": "[1]; 200 OVA-expressing P. berghei sporozoites 30 days after LPX-mOVA vaccination, OT-I transfer", "result": "provide protection against challenge with P. berghei sporozoites"}, {"measurement": "blood parasitemia", "setting": "[1]; after challenge with OVA-expressing P. berghei sporozoites", "result": "significantly limit blood parasitemia"}, {"measurement": "overall TRM cell accumulation in the liver", "setting": "[2]; agonist in LPX-mOVA vaccine, OT-I transfer, liver 30 days later", "result": "significantly better at inducing accumulation of TRM cells"}, {"measurement": "proportion of liver TRM among all vaccine-induced antigen-specific T cells (TRM cell-inducing capability)", "setting": "[2]; agonist in LPX-mOVA vaccine, OT-I transfer, liver 30 days later, relative to α-GalCer vaccine", "result": "superior liver TRM cell-inducing agonist"}, {"measurement": "proportion of antigen-specific TRM cells, liver vs spleen", "setting": "[2]; malaria model vaccination, LPX-mOVA with CI058, 30 days", "result": "significant changes in proportion of antigen-specific TRM cells, which is more pronounced in liver compared to spleen"}]}
